# The source made the active and inactive calls. The rule behind the calls is not given here.
# Assays:
# Candida albicans [1] = test: Antifungal activity against Candida albicans ATCC 3122 by twofold serial dilution method; format: functional
# Rhizopus [2] = test: Antifungal activity against Rhizopus sp. ATCC 2915 after 72 to 96 hrs by twofold serial dilution method; format: functional
# Escherichia coli [3] = test: Antibacterial activity against Escherichia coli ATCC 25835 at 200 ug/mL after 24 hrs by twofold serial dilution method; format: functional, organism-based
# [4] = system: Salmonella enterica subsp. enterica; test: Antibacterial activity against Salmonella typhi ATCC 24915 after 24 hrs by twofold serial dilution method; format: functional, Salmonella enterica subsp. enterica serovar Typhi; settings: ATCC 24915, 24 h
# Bacillus subtilis = test: Antibacterial activity against Bacillus subtilis ATCC 451 after 24 hrs by twofold serial dilution method; format: functional; settings: ATCC 451, 24 h
# Staphylococcus aureus = test: Antibacterial activity against Staphylococcus aureus ATCC 25825 after 24 hrs by twofold serial dilution method; format: functional; settings: ATCC 25825, 24 h
# Aspergillus niger [5] = test: Antifungal activity against Aspergillus niger ATCC 598 after 72 to 96 hrs by twofold serial dilution method; format: functional
# Aspergillus flavus [6] = test: Antifungal activity against Aspergillus flavus ATCC 485 after 72 to 96 hrs by twofold serial dilution method; format: functional
# Cryptococcus neoformans = test: Antifungal activity against Cryptococcus neoformans ATCC 3312 after 72 to 96 hrs by twofold serial dilution method; format: functional
# Klebsiella pneumoniae [7] = test: Antibacterial activity against Klebsiella pneumoniae ATCC 15490 after 24 hrs by twofold serial dilution method; format: functional; settings: ATCC 15490, 24 h
# Escherichia coli [8] = test: Antibacterial activity against Escherichia coli ATCC 25835 after 24 hrs by twofold serial dilution method; format: functional; settings: ATCC 25835, 24 h
# Klebsiella pneumoniae [9] = test: Antibacterial activity against Klebsiella pneumoniae ATCC 15490 at 200 ug/mL after 24 hrs by twofold serial dilution method; format: functional, organism-based
# Aspergillus niger [10] = test: Antifungal activity against Aspergillus niger ATCC 598 at 200 ug/mL after 72 to 96 hrs by twofold serial dilution method; format: functional, organism-based
# [11] = system: Salmonella enterica subsp. enterica; test: Antibacterial activity against Salmonella typhi ATCC 24915 at 200 ug/mL after 24 hrs by twofold serial dilution method; format: functional, organism-based; settings: Salmonella enterica subsp. enterica serovar Typhi
# Aspergillus flavus [12] = test: Antifungal activity against Aspergillus flavus ATCC 485 at 200 ug/mL after 72 to 96 hrs by twofold serial dilution method; format: functional, organism-based
# Candida albicans [13] = test: Antifungal activity against Candida albicans ATCC 3122 at 200 ug/mL by twofold serial dilution method; format: functional, organism-based
# Rhizopus [14] = test: Antifungal activity against Rhizopus sp. ATCC 2915 at 200 ug/mL after 72 to 96 hrs by twofold serial dilution method; format: functional, organism-based
SMILES,MIC (Candida albicans [1]),MIC (Rhizopus [2]),MIC (Escherichia coli [3]),MIC [4],MIC (Bacillus subtilis),MIC (Staphylococcus aureus),MIC (Aspergillus niger [5]),MIC (Aspergillus flavus [6]),MIC (Cryptococcus neoformans),MIC (Klebsiella pneumoniae [7]),MIC (Escherichia coli [8]),MIC (Klebsiella pneumoniae [9]),MIC (Aspergillus niger [10]),MIC [11],MIC (Aspergillus flavus [12]),MIC (Candida albicans [13]),MIC (Rhizopus [14])
NC(=S)NN=C1C2CCCC1C(c1ccc(F)cc1)NC2c1ccc(F)cc1 (stereo not given),50 µg/mL,100 µg/mL,inactive,12.5 µg/mL,25 µg/mL,50 µg/mL,100 µg/mL,6.25 µg/mL,25 µg/mL,100 µg/mL,,,,,,,
NC(=S)NN=C1C2CCCC1C(c1cccc(F)c1)NC2c1cccc(F)c1 (stereo not given),25 µg/mL,100 µg/mL,,50 µg/mL,25 µg/mL,6.25 µg/mL,25 µg/mL,50 µg/mL,25 µg/mL,25 µg/mL,100 µg/mL,,,,,,
COc1cccc(C2NC(c3cccc(OC)c3)C3CCCC2C3=N/N=C2/NC(=O)CS2)c1 (stereo not given),50 µg/mL,100 µg/mL,,6.25 µg/mL,100 µg/mL,100 µg/mL,50 µg/mL,200 µg/mL,100 µg/mL,50 µg/mL,50 µg/mL,,,,,,
C[C@@H]1[C@H](O)[C@@H](C)/C=C/C=C/C=C/C=C/C=C/C=C/C=C/[C@H](O[C@@H]2O[C@H](C)[C@@H](O)[C@H](N)[C@@H]2O)C[C@@H]2O[C@](O)(C[C@@H](O)C[C@@H](O)[C@H](O)CC[C@@H](O)C[C@@H](O)CC(=O)O[C@H]1C)C[C@H](O)[C@H]2C(=O)O [AMPHOTERICIN B],25 µg/mL,25 µg/mL,,,,,50 µg/mL,50 µg/mL,25 µg/mL,,,,,,,,
O=C1CS/C(=N\N=C2C3CCCC2C(c2cccc(F)c2)NC3c2cccc(F)c2)N1 (stereo not given),6.25 µg/mL,6.25 µg/mL,,6.25 µg/mL,50 µg/mL,100 µg/mL,100 µg/mL,50 µg/mL,12.5 µg/mL,,100 µg/mL,inactive,,,,,
NC(=S)NN=C1C2CCCC1C(c1ccccc1Cl)NC2c1ccccc1Cl (stereo not given),200 µg/mL,25 µg/mL,,50 µg/mL,100 µg/mL,200 µg/mL,100 µg/mL,100 µg/mL,100 µg/mL,50 µg/mL,100 µg/mL,,,,,,
O=C1CS/C(=N\N=C2C3CCCC2C(c2ccccc2)NC3c2ccccc2)N1 (stereo not given),50 µg/mL,200 µg/mL,,100 µg/mL,25 µg/mL,50 µg/mL,,200 µg/mL,50 µg/mL,50 µg/mL,12.5 µg/mL,,inactive,,,,
O=C1CS/C(=N\N=C2C3CCCC2C(c2ccc(F)cc2)NC3c2ccc(F)cc2)N1 (stereo not given),6.25 µg/mL,100 µg/mL,,12.5 µg/mL,25 µg/mL,6.25 µg/mL,200 µg/mL,100 µg/mL,25 µg/mL,100 µg/mL,50 µg/mL,,,,,,
CN[C@@H]1[C@H](O[C@H]2[C@H](O[C@H]3[C@H](O)[C@@H](O)[C@H](N=C(N)N)[C@@H](O)[C@@H]3N=C(N)N)O[C@@H](C)[C@]2(O)C=O)O[C@@H](CO)[C@H](O)[C@H]1O [STREPTOMYCIN],,,,50 µg/mL,12.5 µg/mL,50 µg/mL,,,,25 µg/mL,12.5 µg/mL,,,,,,
Cc1ccc(C2NC(c3ccc(C)cc3)C3CCCC2C3=NNC(N)=S)cc1 (stereo not given),200 µg/mL,100 µg/mL,,,100 µg/mL,12.5 µg/mL,200 µg/mL,,200 µg/mL,100 µg/mL,50 µg/mL,,,inactive,inactive,,
COc1ccc(C2NC(c3ccc(OC)cc3)C3CCCC2C3=NNC(N)=S)cc1 (stereo not given),,200 µg/mL,,200 µg/mL,50 µg/mL,25 µg/mL,200 µg/mL,100 µg/mL,50 µg/mL,100 µg/mL,50 µg/mL,,,,,inactive,
COc1cccc(C2NC(c3cccc(OC)c3)C3CCCC2C3=NNC(N)=S)c1 (stereo not given),50 µg/mL,100 µg/mL,,200 µg/mL,50 µg/mL,50 µg/mL,50 µg/mL,,100 µg/mL,100 µg/mL,25 µg/mL,,,,inactive,,
O=C1CS/C(=N/N=C2C3CCCC2C(c2ccccc2Cl)NC3c2ccccc2Cl)N1 (stereo not given),50 µg/mL,6.25 µg/mL,,50 µg/mL,100 µg/mL,100 µg/mL,25 µg/mL,50 µg/mL,100 µg/mL,,25 µg/mL,inactive,,,,,
COc1ccc(C2NC(c3ccc(OC)cc3)C3CCCC2C3=N/N=C2/NC(=O)CS2)cc1 (stereo not given),100 µg/mL,200 µg/mL,,100 µg/mL,50 µg/mL,6.25 µg/mL,100 µg/mL,,50 µg/mL,25 µg/mL,100 µg/mL,,,,inactive,,
NC(=S)NN=C1C2CCCC1C(c1ccccc1)NC2c1ccccc1 (stereo not given),200 µg/mL,,,200 µg/mL,100 µg/mL,50 µg/mL,200 µg/mL,200 µg/mL,100 µg/mL,200 µg/mL,100 µg/mL,,,,,,inactive
NC(=S)NN=C1C2CCCC1C(c1ccc(Cl)cc1)NC2c1ccc(Cl)cc1 (stereo not given),25 µg/mL,50 µg/mL,,100 µg/mL,100 µg/mL,25 µg/mL,100 µg/mL,6.25 µg/mL,25 µg/mL,200 µg/mL,6.25 µg/mL,,,,,,
O=C1CS/C(=N\N=C2C3CCCC2C(c2ccc(Cl)cc2)NC3c2ccc(Cl)cc2)N1 (stereo not given),25 µg/mL,6.25 µg/mL,,6.25 µg/mL,25 µg/mL,6.25 µg/mL,25 µg/mL,100 µg/mL,12.5 µg/mL,50 µg/mL,100 µg/mL,,,,,,
Cc1ccc(C2NC(c3ccc(C)cc3)C3CCCC2C3=N/N=C2/NC(=O)CS2)cc1 (stereo not given),100 µg/mL,50 µg/mL,,100 µg/mL,25 µg/mL,25 µg/mL,,25 µg/mL,100 µg/mL,25 µg/mL,50 µg/mL,,inactive,,,,
